Earlier results in US20050220913A1, “Novel in-expensive and efficient process for isolation of imperatorin, a potent inducible nitric oxide synthase inhibitor and anti-inflammatory drug candidate from Aegle marmelos Correa” (Council of Scientific and Industrial Research, priority 2004, published 2005).

Key:
[1] = test system: inducible nitric oxide synthase (iNOS); conditions: imperatorin isolated from Saposhnikovia divaricata; Yang et al. 1999
[2] = test system: HL-60 cells; conditions: Kawa et al. 2000
[3] = test system: human promyelocytic leukaemia, HL-60 cells; conditions: at micromolar concentrations; imperatorin from roots of Angelica dahurica; Hyun-Ock et al. 2002

SMILES: CC(C)=CCOc1c2occc2cc2ccc(=O)oc12 [Imperatorin]
- IC50 value for inhibition of nitrite production [1]: 17.3 µg/mL
- activity of HL-60 cells by nitro blue tetrazolium (NBT) method [2]: strong activity
- induction of apoptosis of HL-60 cells [3]: able to trigger apoptosis of HL-60 cells
